Test results taken from patent publication US12599582B2, “Pyrrole compounds” (ALIGOS THERAPEUTICS, INC., priority 2019, dated 2026).

The compounds below were run on HBV (assay: HBV-DNA Antiviral Assay Using HepG2.2.15 Cells (extracellular HBV DNA by qPCR)). Settings: HBV DNA inhibition, HepG2.2.15 cells, extracellular HBV DNA by qPCR; read-out: EC50.
Format: cell-based, hepatitis B virus (HBV)
Experimental: The following assay procedure describes the HBV antiviral assay. This assay uses HepG2.2.15 cells, which have been transfected with HBV genome, and extracellular HBV DNA quantification as endpoint. Cell viability is assessed in parallel by measuring the intracellular ATP content using the CellTiter-Glo® reagent from Promega.
On day 0, HepG2.2.15 cells were seeded in 96-well plates at a density of 6.0×10^4 cells/well (0.1 mL/well). The cells were incubated at 37° C. and 5% CO2.
On day 1, the test articles were diluted and added to cell culture wells (8 concentrations, 4-fold dilution, in duplicate). GLS4, Tenofovir and Sorafenib were used as reference compounds. 100 μL of culture medium containing the compounds was added to the plate, and the final total volume per well was 200 μL. The final concentration of DMSO in the culture medium was 0.5%. The plate map of compound treatment is shown below. The cells were cultured at 37° C. and 5% CO2 for 3 days.
On day 4, the plates were refreshed with culture media with compounds.
On day 7, cell viability was assessed using the CellTiter-Glo®, and the cell culture supernatants were collected for determination of HBV DNA by qPCR.
Extracellular DNA was isolated with QIAamp 96 DNA Blood Kit per the manufacturer's manual. HBV DNA was then quantified by qPCR with HBV specific primers and probes as specified in Table 1 using the FastStart Universal MasterMix from Roche on an ABI-7900HT. The PCR cycle program consisted of 95° C. for 10 min, followed by 40 cycles at 95° C. for 15 sec and 60° C. for 1 min.
A DNA standard was prepared by dilution of the pAAV2 HBV1.3 plasmid with concentrations ranging from 10 to 1×10^7 copies/uL and used to generate a standard curve by plotting Ct value vs. the concentration of the HBV plasmid DNA standard. The quantity of HBV DNA in each sample was determined by interpolating from the standard curve.
Cell viability was calculated as follows: % Cell viability=(luminescence value of test sample−average luminescence value of blank)/(average luminescence value of 0.5% DMSO control−average luminescence of blank)×100%. HBV DNA inhibition was calculated as follows: 100−(HBV DNA copy number of test sample−HBV DNA copy number of ETV)/HBV DNA copy number of 0.5% DMSO control−HBV DNA copy number of ETV)×100%. The CC50, EC50 and EC90 values were determined by dose-response curves fitted by GraphPad Prism using “log (agonist) vs. response—Variable slope”.

SMILES | EC50
Cc1c(C(=O)C(=O)NC2(c3c[nH]nn3)COC2)c(C)n(C)c1C(=O)Nc1ccc(F)c(C#N)c1 [Compound 29, N-(3-cyano-4-fluoro-phenyl)-1,3,5-trimethyl-4-[2-oxo-2-[[3-(1H-triazol-4-yl)oxetan-3-yl]amino]acetyl]pyrrole-2-carboxamide] | 1 to 10 nM

Same assay, conditions: Hepatitis B virus, HepG2.2.15

SMILES | EC50
C#CC1(NC(=O)C(=O)c2c(C)c(C(=O)Nc3ccc(F)c(C#N)c3)n(C)c2C)COC1 [Compound 26, N-(3-cyano-4-fluorophenyl)-4-[[(3-ethynyloxetan-3-yl)carbamoyl]carbonyl]-1,3,5-trimethylpyrrole-2-carboxamide] | < 1 nM

Same assay, conditions: Hepatitis B virus; HBV DNA inhibition, HepG2.2.15 cells, extracellular HBV DNA by qPCR; read-out: EC50

SMILES | EC50
C#C[C@H](NC(=O)C(=O)c1c(C)c(C(=O)Nc2ccc(F)c(C#N)c2)n(C)c1C)C1CC1 [Compound 23a, N-(3-cyano-4-fluoro-phenyl)-1,3,5-trimethyl-4-[2-oxo-2-[[(1R)-1-cyclopropylprop-2-ynyl]amino]acetyl]pyrrole-2-carboxamide] | < 1 nM
C#C[C@@H](NC(=O)C(=O)c1c(C)c(C(=O)Nc2ccc(F)c(C#N)c2)n(C)c1C)C1CC1 [Compound 23b, N-(3-cyano-4-fluoro-phenyl)-1,3,5-trimethyl-4-[2-oxo-2-[[(1S)-1-cyclopropylprop-2-ynyl]amino]acetyl]pyrrole-2-carboxamide] | < 1 nM
C#CC1(NC(=O)C(=O)c2c(C)c(C(=O)Nc3ccc(F)c(C#N)c3)n(C)c2C)CC(F)(F)C1 [Compound 24, N-(3-cyano-4-fluoro-phenyl)-4-[2-[(1-ethynyl-3,3-difluoro-cyclobutyl)amino]-2-oxo-acetyl]-1,3,5-trimethyl-pyrrole-2-carboxamide] | < 1 nM
C#CCNC(=O)C(=O)c1cc(C(=O)Nc2ccc(F)c(C#N)c2)n(C)c1Cl [Compound 25, 5-chloro-N-(3-cyano-4-fluoro-phenyl)-1-methyl-4-[2-oxo-2-(prop-2-ynylamino)acetyl]pyrrole-2-carboxamide] | 100 to 1000 nM
C#CCNC(=O)C(=O)c1cc(C(=O)Nc2ccc(F)c(C#N)c2)n(C)c1C [Compound 27, N-(3-cyano-4-fluoro-phenyl)-1,5-dimethyl-4-[2-oxo-2-(prop-2-ynylamino)acetyl]pyrrole-2-carboxamide] | 10 to 100 nM
C#C[C@@H](COC)NC(=O)C(=O)c1c(C)c(C(=O)Nc2ccc(F)c(C#N)c2)n(C)c1C [Compound 28a, N-(3-cyano-4-fluoro-phenyl)-4-[2-[[(1S)-1-(methoxymethyl)prop-2-ynyl]amino]-2-oxo-acetyl]-1,3,5-trimethyl-pyrrole-2-carboxamide] | 1 to 10 nM
C#C[C@H](COC)NC(=O)C(=O)c1c(C)c(C(=O)Nc2ccc(F)c(C#N)c2)n(C)c1C [Compound 28b, N-(3-cyano-4-fluoro-phenyl)-4-[2-[[(1R)-1-(methoxymethyl)prop-2-ynyl]amino]-2-oxo-acetyl]-1,3,5-trimethyl-pyrrole-2-carboxamide] | 1 to 10 nM
C#C[C@H](NC(=O)C(=O)c1c(C)c(C(=O)Nc2ccc(F)c(C#N)c2)n(C)c1C)C(C)(C)C [Compound 30a, N-(3-cyano-4-fluoro-phenyl)-1,3,5-trimethyl-4-[2-oxo-2-[[(1R)-1-tert-butylprop-2-ynyl]amino]acetyl]pyrrole-2-carboxamide] | < 1 nM
C#C[C@@H](NC(=O)C(=O)c1c(C)c(C(=O)Nc2ccc(F)c(C#N)c2)n(C)c1C)C(C)(C)C [Compound 30b, N-(3-cyano-4-fluoro-phenyl)-1,3,5-trimethyl-4-[2-oxo-2-[[(1S)-1-tert-butylprop-2-ynyl]amino]acetyl]pyrrole-2-carboxamide] | < 1 nM
C#CC1(NC(=O)C(=O)c2c(C)c(C(=O)Nc3ccc(F)c(C#N)c3)n(C)c2C)CC(O)C1 (stereo not shown) [Compound 32, N-(3-cyano-4-fluorophenyl)-4-[[(1-ethynyl-3-hydroxycyclobutyl)carbamoyl]carbonyl]-1,3,5-trimethylpyrrole-2-carboxamide] | 1 to 10 nM
C=CC1(NC(=O)C(=O)c2c(C)c(C(=O)Nc3ccc(F)c(C#N)c3)n(C)c2C)COC1 [Compound 33, N-(3-cyano-4-fluoro-phenyl)-1,3,5-trimethyl-4-[2-oxo-2-[(3-vinyloxetan-3-yl)amino]acetyl]pyrrole-2-carboxamide] | 1 to 10 nM
C#CC1(NC(=O)C(=O)c2c(C)c(C(=O)Nc3ccc(F)c(C(F)(F)F)c3)n(C)c2C)COC1 [Compound 34, 4-[2-[(3-ethynyloxetan-3-yl)amino]-2-oxo-acetyl]-N-[4-fluoro-3-(trifluoromethyl)phenyl]-1,3,5-trimethyl-pyrrole-2-carboxamide] | < 1 nM
C#CC(C)(C)NC(=O)C(=O)c1c(C)c(C(=O)Nc2ccc(F)c(C(F)(F)F)c2)n(C)c1C [Compound 35, 4-[2-(1,1-dimethylprop-2-ynylamino)-2-oxo-acetyl]-N-[4-fluoro-3-(trifluoromethyl)phenyl]-1,3,5-trimethyl-pyrrole-2-carboxamide] | < 1 nM
C=C[C@H](NC(=O)C(=O)c1c(C)c(C(=O)Nc2ccc(F)c(C#N)c2)n(C)c1C)C(F)(F)F [Compound 36a, N-(3-cyano-4-fluoro-phenyl)-1,3,5-trimethyl-4-[2-oxo-2-[[(1S)-1-(trifluoromethyl)allyl]amino]acetyl]pyrrole-2-carboxamide] | < 1 nM
C=C[C@@H](NC(=O)C(=O)c1c(C)c(C(=O)Nc2ccc(F)c(C#N)c2)n(C)c1C)C(F)(F)F [Compound 36b, N-(3-cyano-4-fluoro-phenyl)-1,3,5-trimethyl-4-[2-oxo-2-[[(1R)-1-(trifluoromethyl)allyl]amino]acetyl]pyrrole-2-carboxamide] | < 1 nM
C#CC1(NC(=O)C(=O)c2c(C)c(C(=O)Nc3ccc(F)c(C(F)(F)F)c3)n(C)c2C)CC(F)(F)C1 [Compound 37, 4-[2-[(1-ethynyl-3,3-difluoro-cyclobutyl)amino]-2-oxo-acetyl]-N-[4-fluoro-3-(trifluoromethyl)phenyl]-1,3,5-trimethyl-pyrrole-2-carboxamide] | < 1 nM
C#C[C@H](NC(=O)C(=O)c1c(C)c(C(=O)Nc2ccc(F)c(C(F)(F)F)c2)n(C)c1C)C1CC1 [Compound 38a, N-[4-fluoro-3-(trifluoromethyl)phenyl]-1,3,5-trimethyl-4-[2-oxo-2-[[(1R)-1-cyclopropylprop-2-ynyl]amino]acetyl]pyrrole-2-carboxamide] | < 1 nM
C#C[C@@H](NC(=O)C(=O)c1c(C)c(C(=O)Nc2ccc(F)c(C(F)(F)F)c2)n(C)c1C)C1CC1 [Compound 38b, N-[4-fluoro-3-(trifluoromethyl)phenyl]-1,3,5-trimethyl-4-[2-oxo-2-[[(1S)-1-cyclopropylprop-2-ynyl]amino]acetyl]pyrrole-2-carboxamide] | < 1 nM
C#CC1(NC(=O)C(=O)c2c(C)c(C(=O)Nc3ccc(F)c(C#N)c3)n(C)c2Cl)CC(F)(F)C1 [Compound 39, 5-chloro-N-(3-cyano-4-fluoro-phenyl)-4-[2-[(1-ethynyl-3,3-difluoro-cyclobutyl)amino]-2-oxo-acetyl]-1,3-dimethyl-pyrrole-2-carboxamide] | < 1 nM
C#CC1(NC(=O)C(=O)c2c(C)c(C(=O)Nc3ccc(F)c(C#N)c3)n(C)c2Cl)COC1 [Compound 40, 5-chloro-N-(3-cyano-4-fluoro-phenyl)-4-[2-[(3-ethynyloxetan-3-yl)amino]-2-oxo-acetyl]-1,3-dimethyl-pyrrole-2-carboxamide] | < 1 nM
C=CC1(NC(=O)C(=O)c2c(C)c(C(=O)Nc3ccc(F)c(C#N)c3)n(C)c2Cl)COC1 [Compound 41, 5-chloro-N-(3-cyano-4-fluoro-phenyl)-1,3-dimethyl-4-[2-oxo-2-[(3-vinyloxetan-3-yl)amino]acetyl]pyrrole-2-carboxamide] | 1 to 10 nM
C#CC1(NC(=O)C(=O)c2c(C)c(C(=O)Nc3ccc(F)c(C(F)(F)F)c3)n(C)c2C)CC(O)C1 (stereo not shown) [Compound 49, 4-[2-[(1-ethynyl-3-hydroxy-cyclobutyl)amino]-2-oxo-acetyl]-N-[4-fluoro-3-(trifluoromethyl)phenyl]-1,3,5-trimethyl-pyrrole-2-carboxamide] | < 1 nM
CC#CC1(NC(=O)C(=O)c2c(C)c(C(=O)Nc3ccc(F)c(C#N)c3)n(C)c2C)COC1 [Compound 50, N-(3-cyano-4-fluoro-phenyl)-1,3,5-trimethyl-4-[2-oxo-2-[(3-prop-1-ynyloxetan-3-yl)amino]acetyl]pyrrole-2-carboxamide] | < 1 nM
